Earlier results in patent EP3733197A1, “ANAEROBIC ANTIOXIDANT COMPOSITION” (Pitcher, Stephen N., priority 2019, dated 2020).

Legend:
[1] = in vivo

pregnancy risk (in vivo): category B | half-life [1]: approximately 5.6 hours | renally excreted by the body [1]: 30%
Compound: CC(=O)N[C@@H](CS)C(=O)O [NAC, N-acetylcysteine]
associated adverse effects (orally administered or inhaled): drowsiness, stomatitis, clamminess, rhinorrhea, and hemoptysis
